US4545932A, “Glucosaminyl muramyl peptide derivatives” (Dainippon Pharmaceutical Co., Ltd., priority 1982, dated 1985)

Tests used:
Assay type in all cases: in vivo
[1] = tested on: Pseudomonas aeruginosa No. 12; experiment: Prophylactic effect on experimental infection, Pseudomonas aeruginosa; conditions: Std-ddY male mice, 7 days after infection
Text: (§1) Std-ddY male mice weighing about 23 g (each group: 8 mice) were used. Test compounds dissolved in a physiological saline solution were each intravenously administered to mice once a day 1, 2 and 3 days before the infection. Twenty-four hours after the final administration of test compounds, the mice were infected with various microorganisms suspended in saline (in case of Staphylococcus aureus and Candida albicans) or in Trypto-Soy Broth (manufactured by Eiken Chemical Co., Ltd., Japan) (in case of Pseudomonas aeruginosa and Escherichia coli) under the conditions as shown in Table 1. When the experiment was repeated twice or more, the data were pooled.
(§2) ^a Test compounds were intravenously administered once a day 1, 2 and
(§3) 3 days before infection.
(§4) ^b Figures represent (number of survivals)/(number of animals tested)
(§5) and figures in parenthesis represent percent survival.

Candida albicans 3170 = experiment: Prophylactic effect on experimental infection, Candida albicans; conditions: Std-ddY male mice, 7 days after infection
Text: as §1
3170 fungal sus- infection
as §2, §3, §4, §5

Acute toxicity in mice = conditions: mortality for 14 days
Protocol: Male and female ICR mice aged about 6 weeks (each group: 8 mice) were used. The compound of Example 15 was dissolved in distilled water and administered to mice. Mortality was checked for 14 days and LD50 was calculated by probit method.

Escherichia coli P-5101 = experiment: Prophylactic effect on experimental infection, Escherichia coli; conditions: Std-ddY male mice, 7 days after infection
Text: as §1, §2, §3, §4, §5

various microorganisms = experiment: Antiinfectious effect in mice; conditions: summary of Table 2; mice
Text: as §1
Besides, as to the compounds of Examples 8, 18, 36, 37 and 45 (derivatives of GMP3 -A), similar experiments were done.

Pyrogenicity in rabbits = conditions: for Pyrogenicity in rabbits: injected into ear vein, three rabbits per group
Protocol: Rabbits (each group: three rabbits) were used. Test compounds dissolved in a physiological saline solution were each injected into ear vein of rabbits. The difference between maximum body temperature within three hours after the injection of test compound and the body temperature before the injection was regarded as rise in body temperature. The degree of pyrogenicity was evaluated according to the following criterion: […]

[2] = tested on: Staphylococcus aureus No. 50774; experiment: Prophylactic effect on experimental infection, Staphylococcus aureus; conditions: Std-ddY male mice, 14 days after infection
Text: as §1, §2, §3, §4, §5

[3] = Dose 0.0125 mg/kg i.v. once a day 1, 2 and 3 days before infection
[4] = Dose 0.05 mg/kg i.v. once a day 1, 2 and 3 days before infection
[5] = Dose 0.2 mg/kg i.v. once a day 1, 2 and 3 days before infection
[6] = Dose 0.8 mg/kg i.v. once a day 1, 2 and 3 days before infection
[7] = Dose 3.1 mg/kg i.v. once a day 1, 2 and 3 days before infection
[8] = Dose 12.5 mg/kg i.v. once a day 1, 2 and 3 days before infection
[9] = Dose 50 mg/kg i.v. once a day 1, 2 and 3 days before infection
[10] = Dose 0.125 mg/kg i.v. once a day 1, 2 and 3 days before infection

In the case of CCCCCCCCCCCCCCCCCC(=O)NC(CCCC(NC(=O)CCC(NC(=O)C(C)NC(=O)C(C)OC1C(NC(C)=O)C(O)OC(CO)C1OC1OC(CO)C(O)C(O)C1NC(C)=O)C(N)=O)C(=O)NC(C)C(=O)[O-])C(N)=O.[Na+] [Example 15, sodium β-N-acetylglucosaminyl(1→4)-N-acetylmuramyl-L-alanyl-D-isoglutaminyl-(L)-stearoyl-(D)-meso-2,6-diaminopimelic acid-(D)-amide(L)-D-alanate], the “(number of survivals)/(number of animals tested)” value [1, 3] is reported as 12/32, the percent survival [1, 3] is reported as 37.5% and the “(number of survivals)/(number of animals tested)” value [1, 4] is reported as 14/32. For the same molecule, the percent survival [1, 4] was 43.8%, the “(number of survivals)/(number of animals tested)” value [1, 5] was 15/32 and the percent survival [1, 5] was 46.9%. The “(number of survivals)/(number of animals tested)” value [1, 6] was 14/24, the percent survival [1, 6] was 58.3% and the “(number of survivals)/(number of animals tested)” value [1, 7] was 14/16. The percent survival [1, 7] was 87.5%, the “(number of survivals)/(number of animals tested)” value [1, 8] was 8/8 and the percent survival [1, 8] was 100%. For the same molecule, the “(number of survivals)/(number of animals tested)” value (Candida albicans 3170; [6]) was 3/8, the percent survival (Candida albicans 3170; [6]) was 37.5% and the “(number of survivals)/(number of animals tested)” value (Candida albicans 3170; [7]) was 4/8. The percent survival (Candida albicans 3170; [7]) was 50%, the “(number of survivals)/(number of animals tested)” value (Candida albicans 3170; [8]) was 4/8 and the percent survival (Candida albicans 3170; [8]) was 50%. For the same molecule, the “(number of survivals)/(number of animals tested)” value (Candida albicans 3170; [9]) was 7/8, the percent survival (Candida albicans 3170; [9]) was 87.5% and the LD50 (Acute toxicity in mice; i.p., female ICR mice) was greater than 600 mg/kg. The LD50 (Acute toxicity in mice; i.p., male ICR mice) was greater than 600 mg/kg, the LD50 (Acute toxicity in mice; i.v., female ICR mice, probit method, 95% confidence limits in parenthesis) was 266 (237-297) mg/kg and the LD50 (Acute toxicity in mice; i.v., male ICR mice, probit method, 95% confidence limits in parenthesis) was 292 (261-328*) mg/kg. It also gave an LD50 (Acute toxicity in mice; p.o., female ICR mice) greater than 3000 mg/kg, an LD50 (Acute toxicity in mice; p.o., male ICR mice) greater than 3000 mg/kg and an LD50 (Acute toxicity in mice; s.c., female ICR mice) greater than 600 mg/kg. The LD50 (Acute toxicity in mice; s.c., male ICR mice) was greater than 600 mg/kg, the “(number of survivals)/(number of animals tested)” value (Escherichia coli P-5101; [4]) was 6/16 and the percent survival (Escherichia coli P-5101; [4]) was 37.5%. For the same molecule, the “(number of survivals)/(number of animals tested)” value (Escherichia coli P-5101; [5]) was 7/16, the percent survival (Escherichia coli P-5101; [5]) was 43.8% and the “(number of survivals)/(number of animals tested)” value (Escherichia coli P-5101; [6]) was 10/16. The percent survival (Escherichia coli P-5101; [6]) was 62.5%, the “(number of survivals)/(number of animals tested)” value (Escherichia coli P-5101; [7]) was 11/16 and the percent survival (Escherichia coli P-5101; [7]) was 68.8%. For the same molecule, the “(number of survivals)/(number of animals tested)” value (Escherichia coli P-5101; [8]) was 11/16, the percent survival (Escherichia coli P-5101; [8]) was 68.8% and the “(number of survivals)/(number of animals tested)” value (Escherichia coli P-5101; [9]) was 7/8. The percent survival (Escherichia coli P-5101; [9]) was 87.5%, the “antiinfectious effect compared with GMP4 -A” value (various microorganisms) was “more potent antiinfectious effect” and the Pyrogenicity in rabbits (Pyrogenicity in rabbits; Dose 0.1 mg/rabbit) was “- (one animal showed rise in body temperature of 0.6 °C or more)”. For the same molecule, the Pyrogenicity in rabbits (Pyrogenicity in rabbits; Dose 0.3 mg/rabbit) was “- (one animal showed rise in body temperature of 0.6 °C or more)”, the Pyrogenicity in rabbits (Pyrogenicity in rabbits; Dose 1 mg/rabbit) was “- (one animal showed rise in body temperature of 0.6 °C or more)” and the Pyrogenicity in rabbits (Pyrogenicity in rabbits; Dose 3 mg/rabbit) was “± (one animal showed rise in body temperature of 0.6 °C or more)”. The Pyrogenicity in rabbits (Pyrogenicity in rabbits; Dose 10 mg/rabbit) was “+ (two or more animals showed rise in body temperature of 0.6 °C or more)”, the “pyrogenicity compared with GMP4 -A” value (Pyrogenicity in rabbits; summary of Table 3, rabbits) was “less pyrogenicity than GMP4 -A” and the “(number of survivals)/(number of animals tested)” value [2, 4] was 9/16. The percent survival [2, 4] was 56.3%, the “(number of survivals)/(number of animals tested)” value [2, 10] was 3/16 and the percent survival [2, 10] was 18.8%. The “(number of survivals)/(number of animals tested)” value [2, 5] was 13/16, the percent survival [2, 5] was 81.3% and the “(number of survivals)/(number of animals tested)” value [2, 6] was 13/16. For the same molecule, the percent survival [2, 6] was 81.3%, the “(number of survivals)/(number of animals tested)” value [2, 7] was 15/16 and the percent survival [2, 7] was 93.8%. For the same molecule, the “(number of survivals)/(number of animals tested)” value [2, 8] was 13/16 and the percent survival [2, 8] was 81.3%.
